Experimental data reported in US20090215906A1 (priority 2005, published 2009).
Like-named read-outs stand apart in the source and are kept apart here.

What was measured:
[1] = test system: Male Baboons; assay: Effects of Clomids on serum cholesterol in male baboons; type: in vivo, Baboon; conditions: 1.5 mg/kg for 12 days
Description: (§1) The samples analyzed were sera taken on the day of first treatment before being given test article (day 0), after 12 days of treatment (day 12) and 7 days after the last treatment (end or washout).

[2] = test system: men; conditions: cited from earlier work
[3] = test system: Male Baboons; assay: Effects of Clomids on serum testosterone and prolactin in male baboons; type: in vivo, Baboon; conditions: 1.5 mg/kg for 12 days, in words
Description: There were no changes in serum LH or FSH. […] There was also no change in body weight during the 12 day study.

[4] = test system: hypogonadal men
Description: (§2) Half of the men in each of the Androxal™ and placebo arms were randomized into cohorts that underwent in-clinic sessions on days 1 and 14 to determine pharmacokinetic parameters for Androxal™ as well as cyclical changes in testosterone. The placebo and Androxal™ doses were administered in a double blind fashion. The Androgel® cream was administered in an open label fashion. Half of the Androgel® patients underwent in-clinic sessions similar to the other patients in the study. Following the two week drug exposure patients were followed for an additional seven to ten days to determine the status of their testosterone levels.

[5] = test system: Male Baboons; assay: Effects of Clomids on clinical chemistry and hematology parameters in male baboons
Description: as §1

[6] = test system: hypogonadal men; remark: listed apart in the source
Description: as §2

[7] = test system: Male Baboons; conditions: in vivo, 1.5 mg/kg
Description: as §1

[8] = men, after 2 months, Guay et al. 1995

Row | effects on hematocrit [7] | effects on the red blood cell population [7] | Compound | serum cholesterol levels (in words) [1] | LH, FSH, and testosterone [2, 8] | erectile dysfunction [2, 8] | semen quality or fertility ([2]; men, after 6 months of treatment, WHO study) | free and total testosterone ([2]; men, Tenover et al. 1987) | FSH, LH ([2]; young and old men after treatment, Tenover et al. 1987) | effect on total serum testosterone [3] | reduction in triglycerides ([4]; average, non-dose dependent, after two weeks of therapy) [%] | side effects different than placebo ([4]; two week exposure) | counts of eosinophiles ([5]; 1.5 mg/kg for 12 days) | effects on the red blood cell population ([5]; 1.5 mg/kg for 12 days) | lymphocyte count ([5]; 1.5 mg/kg for 12 days) | serum creatinine values ([5]; between day 0 and Day 12) | per cent of granulocytes in the blood ([5]; very strong after the 7-day washout) | changes in testosterone from baseline testosterone levels (in words) ([6]; all doses) | serum levels of LH ([6]; during treatment)
1 |  |  | CCN(CC)CCOc1ccc(C(=C(Cl)c2ccccc2)c2ccccc2)cc1 [Clomid, clomiphene] | slight increase | increase | no effects | no changes | increases | increased | more variable total testosterone levels |  |  |  |  |  |  |  |  | 
2 |  |  | CCN(CC)CCOc1ccc(/C(=C(\Cl)c2ccccc2)c2ccccc2)cc1 [Enclomid, trans-clomiphene] |  |  |  |  |  |  | significant increases | 19.1 | no side effects | raising | substantive effects | increase | no differences | lowering | statistically significant changes | statistically increase
3 | substantive effects | substantive effects | CCN(CC)CCOc1ccc(/C(=C(/Cl)c2ccccc2)c2ccccc2)cc1 [Zuclomid, cis-clomiphene] |  |  |  |  |  |  |  |  |  |  |  |  |  |  |  | 
